In patent US20250000834A1, “COMPOSITIONS AND METHODS FOR TARGETING GPCR FOR THE PREVENTION AND TREATMENT OF PAIN” (Duke University, priority 2021, published 2025):

How the values were obtained:
[1] = test system: PTX-induced mechanical allodynia in mice; test: Paclitaxel (PTX)-induced mechanical allodynia, von Frey paw withdrawal threshold; format: in vivo, mouse; details: intrathecal 100 ng
Method: Pain models and drug injection: Animal model of chemotherapy-induced peripheral neuropathy (CIPN) was induced by paclitaxel (Sigma-Aldrich (St. Louis, MO), T7191, diluted with sterile saline). A single injection of paclitaxel ([…]) was given by intraperitoneal injection. A single injection of paclitaxel may induce mechanical allodynia for 4-6 weeks (X. Luo et al., Macrophage Toll-like Receptor 9 Contributes to Chemotherapy-Induced Neuropathic Pain in Male Mice. J Neurosci 39, 6848-6864 (2019)). Animal model of […] neuropathy was induced by streptozotocin (STZ, Sigma-Aldrich (St. Louis, MO), S0130, diluted with sterile saline). A single injection of STZ (75 mg/kg) was given as previously described (N. C. Brigham et al., Controlled release of etoricoxib from poly(ester urea) films for post-operative pain management. J Control Release 329, 316-327 (2021)). For intrathecal (i.t.) injection of MaR1, a spinal cord puncture was made by a Hamilton micro-syringe (Hamilton, Reno, NV) with a 30-gauge needle between the L5 and L6 levels to deliver reagents (5 μl) to the cerebral spinal fluid (J. L. Hylden, G. L. Wilcox, Intrathecal morphine in mice: a new technique. Eur. J Pharmacol. 67, 313-316 (1980)).
Nociceptive behavior tests: Gpr37l1^+/+, Gpr37l1^+/−, or Gpr37l1^−/− mice were habituated to the testing environment for at least two days before the baseline testing. All the animal behaviors were tested blindly. Thermal and mechanical sensitivity was tested before and after the injection of paclitaxel (PTX, 6 mg/kg, IP) and streptozotocin (STZ, 75 mg/kg, IP). MaR1 was intrathecally injected 3 days after the STZ and PTX injection. […] The 50% paw withdrawal threshold was measured by Dixon's up-down method (W. J. Dixon, Efficient analysis of experimental observations. Annu Rev Pharmacol Toxicol 20, 441-462 (1980)). Thermal sensitivity was measured using a Hargreaves radiant heat apparatus (IITC Life Science, Woodland Hills, CA) (K. Hargreaves, et al., A new and sensitive method for measuring thermal nociception in cutaneous hyperalgesia. Pain 32, 77-88 (1988)). […]

[2] = molecular target: T1, hGPR37L1 (Homo sapiens, UniProt O60883); test: Lipid overlay assay with lysates of hGPR37L1-transfected HEK293 cells; format: binding; parameters: expressed in transfected cells; host or cells: HEK293 Flp-In cells
T1 sequence (O60883 26-481): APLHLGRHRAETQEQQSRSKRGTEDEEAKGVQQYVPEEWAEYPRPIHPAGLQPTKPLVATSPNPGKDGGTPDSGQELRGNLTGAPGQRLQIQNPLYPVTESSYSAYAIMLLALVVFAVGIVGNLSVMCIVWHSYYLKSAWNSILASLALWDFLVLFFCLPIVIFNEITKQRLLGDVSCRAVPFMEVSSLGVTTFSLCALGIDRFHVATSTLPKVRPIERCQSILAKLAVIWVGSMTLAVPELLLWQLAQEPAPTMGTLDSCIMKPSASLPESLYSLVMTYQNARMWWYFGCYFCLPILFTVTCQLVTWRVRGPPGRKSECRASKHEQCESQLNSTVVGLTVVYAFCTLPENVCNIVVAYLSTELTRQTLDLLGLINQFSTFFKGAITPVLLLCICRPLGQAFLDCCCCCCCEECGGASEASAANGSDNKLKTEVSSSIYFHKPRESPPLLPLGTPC
Method: Lipids overlay assay: Lipids membrane coating and protein overlay assay were performed as previously described (S. Dowler, et al., Protein lipid overlay assay. Sci STKE 2002, p 16 (2002)). […] Compound-coated membranes were dried and blocked with 1% BSA. The coated membranes were incubated with lysates obtained from hGPR37L1-transfected HEK293 cells or mouse DRG lysate from WT or Gpr37l1 KO mice for 2 hours, followed by detection using an anti-GRP37L1 antibody (Bioss (Woburn, MA), Rabbit, 1:1000, #bs-15390R) or anti-flag antibody (Cell Signaling Technology (Danvers, MA), Rabbit, 1:1000, #14793). Blots were further incubated with an HRP-conjugated secondary anti-rabbit antibody (Jackson ImmunoResearch Laboratories (West Grove, PA), raised in donkey, 1:5000), developed in ECL solution (Pierce Biotechnology, Waltham, MA), and the signal was visualized from ChemiDoc XRS (Bio-Rad, Hercules, CA). The signal Intensity was quantified by Image J software (NIH).
A lipid overlay assay was conducted to reveal any possible binding of these lipid mediators to GPR37L1. hGPR37L1 was FLAG-tagged and expressed in HEK293 cells after hGPR37L1 cDNA transfection; the expressed protein detectable by anti-FLAG antibody (schematic not shown; see U.S. Prov. No. 63/270,198, FIG. 3A).

[3] = molecular target: T1, hGPR37L1; test: cAMP BRET assay in HEK293 cells co-transfected with GPR37L1 and cAMP BRET cDNAs; format: cell-based; details: 10 nM
Method: cAMP BRET assay: To detect cAMP change after GPCR37L1 activation, we transfected a Nano-lantern cAMP plasmid (1 μg) and human GPR37L1-tango plasmid (1 μg) into HEK-293 cells. BRET activity was measured upon the addition of 100 μl/well for a final concentration of 10 μM Coelenterazine (Santa Cruz Biotechnology, Dallas, TX), 10 nM MaR1, DHA or vehicle, and 100 μM forskolin (Enzo Life Sciences (Farmingdale, NY), #BML-CN100). The luminescent activity was measured using an Infinite F200 Pro Illuminometer (Tecan Trading AG, Switzerland). The luminescent activity was normalized to basal signal levels.
Eight different concentrations of compounds ranging from 0.1 nM to 100 nM were tested.

binding signal in lipid overlay assay ([2]; cell lysate from control mock transfection): no positive signal | binding signal in lipid overlay assay ([2]; lysate of hGPR37L1 (FLAG) transfected HEK293 cells, anti-FLAG detection): specific binding signal | inhibition of forskolin-induced cAMP production [3]: significantly inhibited
SMILES: CC/C=C\C/C=C\C[C@H](O)\C=C/C=C/C=C/[C@H](O)C/C=C\CCC(=O)O [MaR1, Maresin 1]
effect on PTX-induced mechanical allodynia ([1]; Gpr37l1+/+ WT mice, 3 days after PTX): reversed PTX-induced mechanical allodynia in all the mice | effect on PTX-induced mechanical allodynia ([1]; Gpr37l1+/− mice): significantly reversed the mechanical allodynia in a majority | effect on PTX-induced mechanical allodynia ([1]; Gpr37l1−/− mice): no significant effects
